{"source": "patent US20240189316A1", "about": "“DEUTERATED ANALOGS OF ETIFOXINE AND METHODS OF ADMINISTRATION WITHOUT AUTOINDUCTION OF METABOLISM” (Gaba Therapeutics Inc., priority 2022, published 2024)", "key": {"[1]": {"assay": "Stability in human liver microsomes", "assay_type": "in vitro ADME", "conditions": "for half-life: read-out: T½"}, "[2]": {"assay": "Stability in rat liver microsomes", "assay_type": "in vitro ADME", "conditions": "for half-life: read-out: T½"}, "[3]": {"assay": "Stability in mouse liver microsomes", "assay_type": "in vitro ADME", "conditions": "for half-life: read-out: T½"}, "[4]": {"assay": "Phase 1 multiple-ascending dose study, plasma pharmacokinetics in healthy subjects", "assay_type": "in vivo, human", "parameters": "Geometric mean trough concentration: unit not given here", "protocol": "The first dose of study drug was given on Day 1. On Days 1 through 6, subjects subsequently received two (q12h) oral doses of study drug each day. A final single dose of study drug was given on Day 7. Each dose of study drug was given with a 240 mL glass of water at the end of ingestion of a standard meal. The meal was provided 30 minutes before dosing and was completed within 30 minutes or less. On Day 1 and Day 7, subjects were required to fast for 8 hours before the morning meal dose and for 2 hours post dose (water was freely available during this time)."}, "[5]": {"assay": "Plasma concentration-time profile following 50 mg/kg GRX-917 and etifoxine in rats (FIG. 1)", "assay_type": "in vivo, rat"}, "[6]": {"conditions": "cited from earlier work"}}, "data": [{"smiles": "[2H]C([2H])([2H])C([2H])([2H])NC1=Nc2ccc(Cl)cc2C(C)(c2ccccc2)O1", "note": "(racemic) [Deuterated Etifoxine, 6-chloro-N-(ethyl-d5)-4-methyl-4-phenyl-4H-3,1-benzoxazin-2-amine]", "values": [{"measurement": "microsomal CLint", "setting": "[1]", "result": 170, "unit": "µL/min/mg"}, {"measurement": "half-life", "setting": "[1]", "result": 41, "unit": "min"}, {"measurement": "microsomal CLint", "setting": "[2]", "result": 503, "unit": "µL/min/mg"}, {"measurement": "half-life", "setting": "[2]", "result": 14, "unit": "min"}, {"measurement": "microsomal CLint", "setting": "[3]", "result": 464, "unit": "µL/min/mg"}, {"measurement": "half-life", "setting": "[3]", "result": 15, "unit": "min"}, {"measurement": "Induction of metabolism", "setting": "[4]; 100 mg bid", "result": "did not induce metabolism"}, {"measurement": "Geometric mean trough concentration", "setting": "[4]; 100 mg q12 h, Day 1", "result": 11.6}, {"measurement": "Geometric mean trough concentration", "setting": "[4]; 100 mg q12 h, Day 2", "result": 36.1}, {"measurement": "Geometric mean trough concentration", "setting": "[4]; 100 mg q12 h, Day 4", "result": 39.3}, {"measurement": "Geometric mean trough concentration", "setting": "[4]; 100 mg q12 h, Day 5", "result": 31.9}, {"measurement": "Geometric mean trough concentration", "setting": "[4]; 100 mg q12 h, Day 6", "result": 34.0}, {"measurement": "Geometric mean trough concentration", "setting": "[4]; 100 mg q12 h, Day 7 (12-hr post-dose)", "result": 27.1}, {"measurement": "Geometric mean trough concentration", "setting": "[4]; 100 mg q12 h, Day 7 (pre-dose)", "result": 27.7}, {"measurement": "Induction of metabolism", "setting": "[4]; 150 mg bid (twice daily)", "result": "induces metabolism"}, {"measurement": "Geometric mean trough concentration", "setting": "[4]; 150 mg q12 h, Day 1", "result": 28.1}, {"measurement": "Geometric mean trough concentration", "setting": "[4]; 150 mg q12 h, Day 2", "result": 43.8}, {"measurement": "Geometric mean trough concentration", "setting": "[4]; 150 mg q12 h, Day 4", "result": 44.5}, {"measurement": "Geometric mean trough concentration", "setting": "[4]; 150 mg q12 h, Day 5", "result": 39.2}, {"measurement": "Geometric mean trough concentration", "setting": "[4]; 150 mg q12 h, Day 6", "result": 37.7}, {"measurement": "Geometric mean trough concentration", "setting": "[4]; 150 mg q12 h, Day 7 (12-hr post-dose)", "result": 31.4}, {"measurement": "Geometric mean trough concentration", "setting": "[4]; 150 mg q12 h, Day 7 (pre-dose)", "result": 33.3}, {"measurement": "Geometric mean trough concentration", "setting": "[4]; 200 mg q12 h, Day 1", "result": 42.8}, {"measurement": "Geometric mean trough concentration", "setting": "[4]; 200 mg q12 h, Day 2", "result": 72.3}, {"measurement": "Geometric mean trough concentration", "setting": "[4]; 200 mg q12 h, Day 4", "result": 67.2}, {"measurement": "Geometric mean trough concentration", "setting": "[4]; 200 mg q12 h, Day 5", "result": 62.4}, {"measurement": "Geometric mean trough concentration", "setting": "[4]; 200 mg q12 h, Day 6", "result": 53.7}, {"measurement": "Geometric mean trough concentration", "setting": "[4]; 200 mg q12 h, Day 7 (12-hr post-dose)", "result": 51.4}, {"measurement": "Geometric mean trough concentration", "setting": "[4]; 200 mg q12 h, Day 7 (pre-dose)", "result": 58.9}, {"measurement": "Geometric mean trough concentration", "setting": "[4]; 300 mg q12 h, Day 1", "result": 54.9}, {"measurement": "Geometric mean trough concentration", "setting": "[4]; 300 mg q12 h, Day 2", "result": 87.4}, {"measurement": "Geometric mean trough concentration", "setting": "[4]; 300 mg q12 h, Day 4", "result": 71.0}, {"measurement": "Geometric mean trough concentration", "setting": "[4]; 300 mg q12 h, Day 5", "result": 70.0}, {"measurement": "Geometric mean trough concentration", "setting": "[4]; 300 mg q12 h, Day 6", "result": 66.3}, {"measurement": "Geometric mean trough concentration", "setting": "[4]; 300 mg q12 h, Day 7 (12-hr post-dose)", "result": 60.4}, {"measurement": "Geometric mean trough concentration", "setting": "[4]; 300 mg q12 h, Day 7 (pre-dose)", "result": 63.0}, {"measurement": "Tmax dependence on dose", "setting": "[4]; Day 7, statistical analysis", "result": "independent of dose"}, {"measurement": "half-life", "setting": "[4]; both sexes, human, plasma, oral, Day 7, read-out: Geometric mean t1/2", "result": "38.8 to 82.1", "unit": "h"}, {"measurement": "Tmax", "setting": "[4]; both sexes, human, plasma, single and multiple oral doses of 100-300 mg q12h, post-dose, read-out: Median Tmax", "result": "120 to 211", "unit": "min"}, {"measurement": "Fraction of dose excreted as deuterated etifoxine", "setting": "[4]; renal elimination", "result": "< 0.004", "unit": "%"}, {"measurement": "AUC as compared to etifoxine", "setting": "[5]", "result": "approximately 3 fold"}]}, {"smiles": "CCNC1=Nc2ccc(Cl)cc2C(C)(c2ccccc2)O1", "note": "(stereo not shown) [Etifoxine, 6-chloro-2-(ethylamino)-4-methyl-4-phenyl-4H-3,1-benzoxazine]", "values": [{"measurement": "microsomal CLint", "setting": "[1]", "result": 309, "unit": "µL/min/mg"}, {"measurement": "half-life", "setting": "[1]", "result": 22, "unit": "min"}, {"measurement": "microsomal CLint", "setting": "[2]", "result": 915, "unit": "µL/min/mg"}, {"measurement": "half-life", "setting": "[2]", "result": 8, "unit": "min"}, {"measurement": "microsomal CLint", "setting": "[3]", "result": 657, "unit": "µL/min/mg"}, {"measurement": "half-life", "setting": "[3]", "result": 11, "unit": "min"}, {"measurement": "Auto-induction of CYP enzyme(s) on continued dosing", "setting": "[6]; continued dosing over time", "result": "exhibits an auto-induction effect"}, {"measurement": "Half-life in humans", "setting": "[6]; humans", "result": "240 to 360", "unit": "min"}]}]}
